What was measured:
Type in all cases: cell-based, human
CDKN1B mRNA = test: RT-PCR CDKN1B mRNA in LNCaP cells; details: 48 hours treatment, 0-25 μM
Experimental: LNCaP cells cultured in 10% FBS were treated with 0, 2.5, 12.5, or 25 μM glyceollins for 48 h, total RNA isolated and mRNA levels of CDKN1A determined as described below. Results are expressed as mean+/−SD (n=3).
(§1) Determination of the effects of glyceollins on gene expression in LNCaP cells using RT-PCR. To examine the effects of glyceollins on cyclin inhibitor CDKN1A and B mRNA expression, LNCaP cells were plated in 6-well plates (0.25×10^6 cells/well) in Media A. After twenty-four hours the medium was removed and replaced with fresh medium containing vehicle, 1, 5, or 25 μM glyceollins or genistein. For experiments examining the effects of glyceollins on steroid hormone, LNCaP cells were plated in 6-well plates (0.25×10^6 cells/well) in Media A and switched to Media B containing 10% CDS 24 h after plating to minimize the effect of serum hormones. Twenty-four hours later, the medium was replaced with fresh medium containing 1 nM DHT or 17β-estradiol with or without 0-25 μM glyceollin. For all experiments fresh medium containing the test compounds was changed daily and cells were harvested for total RNA isolation using the Trizol method (Invitrogen) after 48 h. Taqman real-time PCR was used to quantify expression of the mRNA. […]

CDKN1A mRNA = test: RT-PCR CDKN1A mRNA in LNCaP cells; details: 48 hours treatment, 10% FBS
Experimental: LNCaP cells cultured in 10% FBS were treated with 0, 2.5, 12.5, or 25 μM glyceollins for 48 h, total RNA isolated and mRNA levels of CDKN1A determined as described below. Results are expressed as mean +/−SD (n=3).
LNCaP cells cultured in 10% FBS were treated with 0, 1, 5, 12.5 or 25 μM genistein for 48 h, total RNA isolated and mRNA levels of CDKN1A determined as described below. Results are expressed as mean+/−SD (n=3).
as §1, with “For all experiments fresh medium containing the test compounds was changed daily and cells were harvested for total RNA isolation using the Trizol method (Invitrogen) after 48 h.” left out

LNCaP cells = test: Cell cycle analysis using flow cytometry (PI), LNCaP; details: 72 hours; glyceollins 0-25 μM, genistein 25 μM
Experimental: LNCaP cells (3×10^6 cell) were plated in T-175 flask and treated with 0, 0.25, 2.5, 12.5, or 25 μM glyceollins or with and without genistein (25 μM) for 72 hr, cell cycle analysis performed as described below. Results are expressed as % of total cells (n=3).
(§2) Cell cycle analysis using flow cytometry. LNCaP or PC3 cells (3×10^6 cells) were seeded into T-175 flask in Medium A. Twenty-four hours later the medium was changed to that containing vehicle or test compounds. […] The cellular DNA was then analyzed by flow cytometry. DNA content of the cells was determined through flow cytometry using a FACScalibur cytometer (Becton Dickinson, San Jose, Calif.). Flow cytometric data files were collected and analyzed using the CELLQuest program (Becton Dickinson). […] Cell cycle distribution percentages of stained nuclei were calculated using Modfit LT software (Version 3.0, Verity Software House, Inc., Topsham, Me.). […]

PC-3 cells = test: Cell cycle analysis using flow cytometry (PI), PC-3; details: 25 μM, 72 hours
Experimental: PC-3 cells (3×10^6 cells) were plated in T-175 flask and treated with or without 25 μM of glyceollins or genistein for 72 hr, cell cycle analysis performed as described below. Results are expressed as % of total cells (n=3).
as §2

O=c1c(-c2ccc(O)cc2)coc2cc(O)cc(O)c12 [genistein]
effect on CDKN1B mRNA levels in LNCaP cells (CDKN1B mRNA): no changes | concentration at which significant change/induction of CDKN1A mRNA is observed (CDKN1A mRNA): 25 µM | effect on cell cycle progression in LNCaP cells (LNCaP cells): G1/G0 arrest | G2/M blockage in PC-3 cells (PC-3 cells): lead to G2/M blockage

From patent publication US20130041022A1, “Glyceollins Suppress Androgen-Responsive Prostate Cancer” (UNITED STATES DEPARTMENT OF AGRICULTURE, priority 2008, published 2013)
